Earlier results in patent US20200009266A1, “IN VIVO GENE THERAPY FOR IMMUNE DEFICIENCIES” (priority 2017, published 2020).

Key:
circulating CD34+ cells = conditions: AMD3100 alone, adult dogs
[1] = tested on: peripheral blood lymphocytes; conditions: rhesus macaques

c1cc(CN2CCCNCCNCCCNCC2)ccc1CN1CCCNCCNCCCNCC1 [AMD3100]
time of peak mobilization post treatment (circulating CD34+ cells): 8 to 10 h | tolerability of treatment (circulating CD34+ cells): well tolerated | lymphocyte numbers in peripheral blood [1]: increased numbers of B and T lymphocytes
